# Measured values reported in BindingDB's records for patent US20250250264 (Wuhan Humanwell Innovative Drug Research And Development …, 2025).
# Target: T1, Kinesin-like protein KIF18A [1-467] (Human, UniProt Q8NI77)
# T1 construct: 1-467
# T1 sequence (Q8NI77 whole entry): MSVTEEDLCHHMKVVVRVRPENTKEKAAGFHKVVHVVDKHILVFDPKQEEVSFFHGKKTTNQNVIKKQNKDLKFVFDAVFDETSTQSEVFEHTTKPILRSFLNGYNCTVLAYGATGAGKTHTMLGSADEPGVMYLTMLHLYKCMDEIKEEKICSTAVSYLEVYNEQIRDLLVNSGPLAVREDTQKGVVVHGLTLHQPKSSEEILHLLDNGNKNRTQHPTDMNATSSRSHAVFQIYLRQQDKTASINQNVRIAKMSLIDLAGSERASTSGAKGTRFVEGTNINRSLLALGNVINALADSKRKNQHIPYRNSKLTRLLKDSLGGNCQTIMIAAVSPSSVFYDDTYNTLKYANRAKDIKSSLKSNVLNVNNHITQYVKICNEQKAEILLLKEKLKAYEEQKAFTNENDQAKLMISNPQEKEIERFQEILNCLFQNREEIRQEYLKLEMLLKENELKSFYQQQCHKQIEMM
# Experiment: Assay on Inhibition of KIF18A Enzymatic Activity
# Method: The reaction system consisted of a test compound, the recombinant protein KIF18A (aa 1-467), ATP (Promega Inc), and an assay buffer. The test compound was prepared into a 0.5 mM stock solution using DMSO (Sigma Inc) and then serially diluted in DMSO. The assay buffer consisted of an aqueous solution of 15 mM Tris, 10 mM MgCl2 (Sigma Inc), 0.01% Pluronic F-68 (Life Technologies Inc), 1 μM paclitaxel (Cytoskeleton Inc), 30 μg/mL porcine tubulin (Cytoskeleton Inc), and 2% DMSO. The KIF18A protein (final concentration: 80 nM) and the compound at different concentrations (1 μL) were added to the prepared assay buffer (50 μL), and the mixture was incubated at room temperature for 15 min. Then, ATP (final concentration: 80 μM) was added to the reaction mixture, and the resulting mixture was incubated at room temperature for 3 h. After the reaction was completed, 5 μL of the ADP-Glo™ reagent and 2.5 μL of the reaction mixture were added to a 384-well plate (Grenier Inc). The resulting mixture was mixed homogeneously, then sealed by an aluminum foil sealing film, and incubated at room temperature in the dark for 40 min. […] After all reactions were completed, the luminescence values of the wells were read on a microplate reader (Molecular Device_SpectraMax Id5), and the inhibition ratios were calculated.
row,IC50,Structure (SMILES)
1,0.025 µM,"Cc1cc(-c2nnc(-c3ccc(NS(=O)(=O)CCO)cc3N3CCC4(CC3)CC4)o2)c(F)c(N2CCC(F)(F)CC2)n1 [US20250250264, Compound I-53]"
2,0.003 µM,"Cc1cc(-c2nnc(-c3ccc(NS(=O)(=O)CCO)cc3N3CCC4(CC3)CC4)s2)nc(OCCC(F)(F)F)n1 [US20250250264, Compound I-99]"
